Legend:
bedstraw = experiment: Test B pre/postemergence bedstraw; format: in vivo, Galium aparine; settings: Preemergence
Procedure, shortened: (§1)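 Response is a visual 0-to-10 score relative to untreated plants, where 0 means no effect and 10 means complete control, taken twelve to sixteen days after application. Treatments went onto soil at planting and onto foliage of 1- to 4-leaf plants, using a surfactant-containing non-phytotoxic solvent.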

blackgrass = experiment: Test B pre/postemergence blackgrass; format: in vivo, Alopecurus myosuroides
Procedure, shortened: as §1

surinam grass = experiment: Test B pre/postemergence surinam grass; format: in vivo, Brachiaria decumbens
Procedure, shortened: as §1

cocklebur = experiment: Test B pre/postemergence cocklebur; format: in vivo, Xanthium strumarium
Procedure, shortened: as §1

corn = experiment: Test B pre/postemergence corn; format: in vivo, Zea mays
Procedure, shortened: as §1

crabgrass = experiment: Test B pre/postemergence crabgrass; format: in vivo, Digitaria sanguinalis
Procedure, shortened: as §1

giant foxtail = experiment: Test B pre/postemergence giant foxtail; format: in vivo, Setaria faberii
Procedure, shortened: as §1

morningglory = experiment: Test B pre/postemergence morningglory; format: in vivo, Ipomoea hederacea
Procedure, shortened: as §1

pigweed = experiment: Test B pre/postemergence pigweed; format: in vivo, Amaranthus retroflexus
Procedure, shortened: as §1

rape = experiment: Test B pre/postemergence rape; format: in vivo, Brassica napus
Procedure, shortened: as §1

soybean = experiment: Test B pre/postemergence soybean; format: in vivo, Glycine max
Procedure, shortened: as §1

sugar beet = experiment: Test B pre/postemergence sugar beet; format: in vivo, Beta vulgaris
Procedure, shortened: as §1

velvetleaf = experiment: Test B pre/postemergence velvetleaf; format: in vivo, Abutilon theophrasti
Procedure, shortened: as §1

wheat = experiment: Test B pre/postemergence wheat; format: in vivo, Triticum aestivum
Procedure, shortened: as §1

wild oat = experiment: Test B pre/postemergence wild oat; format: in vivo, Avena fatua
Procedure, shortened: as §1

purple nutsedge = experiment: Test B pre/postemergence purple nutsedge; format: in vivo, Cyperus rotundus
Procedure, shortened: as §1

[1] = Postemergence, Rate 62 g/ha, scale 0 to 10, 0 is no effect, 10 is complete control
[2] = Postemergence, Rate 125 g/ha, scale of 0 to 10 where 0 is no effect and 10 is complete control
[3] = Postemergence, Rate 250 g/ha, scale of 0 to 10, 0 is no effect, 10 is complete control
[4] = Preemergence, Rate 62 g/ha, scale of 0 to 10 where 0 is no effect and 10 is complete control
[5] = Preemergence, Rate 125 g/ha, scale of 0 to 10 where 0 is no effect and 10 is complete control
[6] = Preemergence, Rate 250 g/ha, scale 0 to 10 (0 no effect, 10 complete control)
[7] = Preemergence, Rate 500 g/ha, scale of 0 to 10 where 0 is no effect and 10 is complete control
[8] = Rate 500 g/ha, Postemergence, scale 0 to 10, 0 is no effect, 10 is complete control

SMILES: CC(C)N(C(=O)n1oc(=O)n(Cc2nnc(Cl)s2)c1=O)c1ccc(Cl)cc1 [Compound 653]
- Bedstraw plant response rating (bedstraw; Rate 62 g/ha, scale of 0 to 10 where 0 is no effect and 10 is complete control): 0
- Bedstraw plant response rating (bedstraw; Rate 125 g/ha, scale of 0 to 10 where 0 is no effect and 10 is complete control): 0
- Plant response rating, Bedstraw (bedstraw; Rate 250 g/ha, scale 0 to 10 (0 no effect, 10 complete control)): 0
- Plant response rating, Bedstraw (bedstraw; Rate 500 g/ha, scale of 0 to 10 where 0 is no effect and 10 is complete control): 0
- Plant response rating, Blackgrass (blackgrass; [1]): 0
- Blackgrass plant response rating (blackgrass; [2]): 0
- Blackgrass plant response rating (blackgrass; [3]): 0
- Blackgrass plant response rating (blackgrass; [4]): 0
- Blackgrass plant response rating (blackgrass; [5]): 0
- Plant response rating, Blackgrass (blackgrass; [6]): 0
- Plant response rating, Blackgrass (blackgrass; [7]): 0
- Blackgrass plant response rating (blackgrass; [8]): 0
- Plant response rating, B. signalgrass (surinam grass; [1]): 0
- Plant response rating, B. signalgrass (surinam grass; [2]): 0
- B. signalgrass plant response rating (surinam grass; [3]): 0
- B. signalgrass plant response rating (surinam grass; [4]): 0
- B. signalgrass plant response rating (surinam grass; [5]): 0
- Plant response rating, B. signalgrass (surinam grass; [6]): 0
- Plant response rating, B. signalgrass (surinam grass; [7]): 0
- B. signalgrass plant response rating (surinam grass; [8]): 2
- Plant response rating, Cocklebur (cocklebur; [1]): 0
- Cocklebur plant response rating (cocklebur; [2]): 0
- Cocklebur plant response rating (cocklebur; [3]): 0
- Cocklebur plant response rating (cocklebur; [4]): 0
- Plant response rating, Cocklebur (cocklebur; [6]): 0
- Plant response rating, Cocklebur (cocklebur; [7]): 0
- Cocklebur plant response rating (cocklebur; [8]): 0
- Plant response rating, Corn (corn; [1]): 0
- Corn plant response rating (corn; [2]): 0
- Corn plant response rating (corn; [3]): 0
- Corn plant response rating (corn; [4]): 0
- Corn plant response rating (corn; [5]): 0
- Plant response rating, Corn (corn; [6]): 0
- Plant response rating, Corn (corn; [7]): 0
- Corn plant response rating (corn; [8]): 0
- Plant response rating, Crabgrass (crabgrass; [1]): 0
- Crabgrass plant response rating (crabgrass; [2]): 0
- Crabgrass plant response rating (crabgrass; [3]): 0
- Crabgrass plant response rating (crabgrass; [4]): 0
- Crabgrass plant response rating (crabgrass; [5]): 2
- Plant response rating, Crabgrass (crabgrass; [6]): 6
- Plant response rating, Crabgrass (crabgrass; [7]): 8
- Crabgrass plant response rating (crabgrass; [8]): 2
- Plant response rating, Giant foxtail (giant foxtail; [1]): 0
- Giant foxtail plant response rating (giant foxtail; [2]): 0
- Giant foxtail plant response rating (giant foxtail; [3]): 2
- Giant foxtail plant response rating (giant foxtail; [4]): 0
- Giant foxtail plant response rating (giant foxtail; [5]): 0
- Plant response rating, Giant foxtail (giant foxtail; [6]): 2
- Plant response rating, Giant foxtail (giant foxtail; [7]): 8
- Giant foxtail plant response rating (giant foxtail; [8]): 7
- Plant response rating, Morningglory (morningglory; [1]): 0
- Morningglory plant response rating (morningglory; [2]): 1
- Morningglory plant response rating (morningglory; [3]): 1
- Morningglory plant response rating (morningglory; [4]): 0
- Morningglory plant response rating (morningglory; [5]): 0
- Plant response rating, Morningglory (morningglory; [6]): 0
- Plant response rating, Morningglory (morningglory; [7]): 0
- Morningglory plant response rating (morningglory; [8]): 1
- Plant response rating, Redroot pigweed (pigweed; [1]): 0
- Redroot pigweed plant response rating (pigweed; [2]): 0
- Redroot pigweed plant response rating (pigweed; [4]): 0
- Redroot pigweed plant response rating (pigweed; [5]): 0
- Plant response rating, Redroot pigweed (pigweed; [6]): 0
- Plant response rating, Redroot pigweed (pigweed; [7]): 3
- Redroot pigweed plant response rating (pigweed; [8]): 0
- Plant response rating, Rape (rape; [1]): 0
- Rape plant response rating (rape; [2]): 0
- Rape plant response rating (rape; [4]): 0
- Rape plant response rating (rape; [5]): 0
- Plant response rating, Rape (rape; [6]): 0
- Plant response rating, Rape (rape; [7]): 0
- Rape plant response rating (rape; [8]): 0
- Plant response rating, Soybean (soybean; [1]): 0
- Soybean plant response rating (soybean; [2]): 0
- Soybean plant response rating (soybean; [4]): 0
- Soybean plant response rating (soybean; [5]): 0
- Plant response rating, Soybean (soybean; [6]): 0
- Plant response rating, Soybean (soybean; [7]): 0
- Soybean plant response rating (soybean; [8]): 0
- Plant response rating, Sugarbeets (sugar beet; [1]): 0
- Sugarbeets plant response rating (sugar beet; [2]): 0
- Sugarbeets plant response rating (sugar beet; [4]): 0
- Sugarbeets plant response rating (sugar beet; [5]): 0
- Plant response rating, Sugarbeets (sugar beet; [6]): 0
- Plant response rating, Sugarbeets (sugar beet; [7]): 0
- Sugarbeets plant response rating (sugar beet; [8]): 0
- Plant response rating, Velvetleaf (velvetleaf; [1]): 0
- Velvetleaf plant response rating (velvetleaf; [2]): 0
- Velvetleaf plant response rating (velvetleaf; [4]): 0
- Velvetleaf plant response rating (velvetleaf; [5]): 0
- Plant response rating, Velvetleaf (velvetleaf; [6]): 0
- Plant response rating, Velvetleaf (velvetleaf; [7]): 0
- Velvetleaf plant response rating (velvetleaf; [8]): 0
- Plant response rating, Wheat (wheat; [1]): 0
- Wheat plant response rating (wheat; [2]): 0
- Wheat plant response rating (wheat; [4]): 0
- Wheat plant response rating (wheat; [5]): 0
- Plant response rating, Wheat (wheat; [6]): 0
- Plant response rating, Wheat (wheat; [7]): 0
- Wheat plant response rating (wheat; [8]): 0
- Plant response rating, Wild oats (wild oat; [1]): 0
- Wild oats plant response rating (wild oat; [2]): 0
- Wild oats plant response rating (wild oat; [4]): 0
- Wild oats plant response rating (wild oat; [5]): 0
- Plant response rating, Wild oats (wild oat; [6]): 0
- Plant response rating, Wild oats (wild oat; [7]): 2
- Wild oats plant response rating (wild oat; [8]): 0
- Plant response rating, Nutsedge (purple nutsedge; [1]): 0
- Nutsedge plant response rating (purple nutsedge; [2]): 0
- Nutsedge plant response rating (purple nutsedge; [4]): 0
- Plant response rating, Nutsedge (purple nutsedge; [7]): 0
- Nutsedge plant response rating (purple nutsedge; [8]): 0

From patent US6737383B1, “Herbicidal oxadiazolidines” (priority 1999, dated 2004)
